Reference: patent US7731960B2, “Antibodies that inhibit transport activity of peptide transporters” (Chugai Seiyaku Kabushiki Kaisha, priority 2003, dated 2010)

Key:
Format in all cases: cell-based
human PepT1 = biological target: T1, human PepT1 (Homo sapiens, UniProt P46059); test: [14C] glycylsarcosine uptake into BaF3/PepT1 cells; details: FIG. 2
T1 sequence (P46059 1-708): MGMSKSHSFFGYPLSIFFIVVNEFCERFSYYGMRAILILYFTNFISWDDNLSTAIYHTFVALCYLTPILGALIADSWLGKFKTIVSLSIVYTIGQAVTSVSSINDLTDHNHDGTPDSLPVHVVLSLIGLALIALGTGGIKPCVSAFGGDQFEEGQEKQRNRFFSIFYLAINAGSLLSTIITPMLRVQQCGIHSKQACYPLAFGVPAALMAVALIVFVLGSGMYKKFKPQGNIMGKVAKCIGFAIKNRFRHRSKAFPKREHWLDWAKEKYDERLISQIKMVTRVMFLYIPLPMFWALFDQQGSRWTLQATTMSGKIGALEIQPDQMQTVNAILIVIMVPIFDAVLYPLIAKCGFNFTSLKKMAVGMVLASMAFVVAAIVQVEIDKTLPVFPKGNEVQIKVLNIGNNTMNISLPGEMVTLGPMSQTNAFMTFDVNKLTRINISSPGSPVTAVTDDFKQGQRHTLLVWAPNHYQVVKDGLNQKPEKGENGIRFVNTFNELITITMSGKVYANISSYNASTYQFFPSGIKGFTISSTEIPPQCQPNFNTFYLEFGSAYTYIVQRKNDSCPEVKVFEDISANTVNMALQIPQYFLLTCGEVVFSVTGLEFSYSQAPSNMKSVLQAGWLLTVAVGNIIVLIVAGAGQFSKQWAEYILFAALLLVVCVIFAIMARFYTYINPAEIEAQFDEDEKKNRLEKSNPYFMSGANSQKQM
Description: FIG. 2 is a graph showing the PepT1 inhibiting ability of AT-264 in BaF3 cells.
The ability of AT-264 to inhibit PepT1 was examined by forcedly expressing human PepT1 in mouse bone marrow-derived BaF3 cells (hereinafter abbreviated as BaF3/PepT1).

human PepT2 = biological target: T2, human PepT2 (Homo sapiens, UniProt Q16348); test: [3H] glycylsarcosine uptake into BaF3/PepT2 cells; details: FIG. 4
T2 construct: expressed in transfected cells; host or cells: murine bone marrow-derived BaF3 cells
T2 sequence (Q16348 1-729): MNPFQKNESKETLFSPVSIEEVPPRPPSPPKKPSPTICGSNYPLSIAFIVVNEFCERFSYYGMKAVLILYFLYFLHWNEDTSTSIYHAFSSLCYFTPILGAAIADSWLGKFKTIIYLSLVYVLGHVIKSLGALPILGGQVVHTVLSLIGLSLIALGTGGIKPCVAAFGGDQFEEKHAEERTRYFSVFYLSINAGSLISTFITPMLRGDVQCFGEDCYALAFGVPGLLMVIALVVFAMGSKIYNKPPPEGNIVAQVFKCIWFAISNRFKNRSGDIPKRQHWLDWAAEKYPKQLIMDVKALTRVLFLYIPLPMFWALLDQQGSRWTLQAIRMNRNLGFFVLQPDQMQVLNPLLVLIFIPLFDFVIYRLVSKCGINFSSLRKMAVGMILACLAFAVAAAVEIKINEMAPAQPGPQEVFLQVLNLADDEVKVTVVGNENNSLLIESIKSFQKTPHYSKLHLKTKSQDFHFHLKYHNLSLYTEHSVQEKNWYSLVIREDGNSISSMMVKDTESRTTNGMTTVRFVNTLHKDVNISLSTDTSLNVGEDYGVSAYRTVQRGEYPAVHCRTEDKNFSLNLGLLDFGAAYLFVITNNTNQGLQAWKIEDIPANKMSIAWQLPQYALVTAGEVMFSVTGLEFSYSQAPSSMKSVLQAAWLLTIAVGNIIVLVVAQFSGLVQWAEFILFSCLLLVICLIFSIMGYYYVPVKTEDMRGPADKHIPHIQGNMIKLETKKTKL
Description: FIG. 4 is a graph showing the PepT2 inhibiting ability of AT-264 in BaF3/PepT2. The data are shown as an average±S.D. (n=3 to 4).
The ability of AT-264 to inhibit PepT2 was examined using a murine bone marrow-derived cell line BaF3 in which human PepT2 is forcedly expressed (hereinafter, abbreviated as BaF3/PepT2).

[1] = system: human pancreatic cancer cell line BxPC-3; test: Cell growth inhibition of BxPC-3, MTS assay after six days of culture
Experimental: FIG. 5 is a graph showing the cell growth inhibitory effect of AT-264 against human pancreatic cancer cell line BxPC-3. The data are shown as an average±S.D. (n=6).
AT-264 was dissolved in RPMI1640-10 mM Hepes with 100 units/mL penicillin and 0.1 mg/mL streptomycin (hereinafter, abbreviated as ‘the medium’) containing 0.5% ethanol and 0.5% DMSO to prepare 2.5 mM AT-264 solution. Furthermore, this solution was diluted with the medium to prepare 0.625 mM and 0.0625 mM AT-264 solutions.
5×10^4 cells/mL solution of BxPC-3 was prepared using the medium containing 50% FBS. This suspension was seeded at 40 μL/well (2×10^3 cells) onto a 96-well plate pre-coated with Collagen type I, and 160 μL of AT-264 solution was added. This was cultured for six days in a CO2 incubator, and on the sixth day of culture, the number of viable cells was quantified by MTS assay.

[2] = system: human pancreatic cancer cell line AsPC-1; test: Cell growth inhibition of AsPC-1, MTS assay after six days of culture
Experimental: FIG. 3 is a graph showing the cell growth inhibitory effect of AT-264 against human pancreatic cancer cell line AsPC-1. The data are shown as an average±S.D. (n=3 to 4).
AT-264 was dissolved in RPMI1640-10 mM Hepes (hereinafter, abbreviated as ‘the medium’) containing 0.5% ethanol and 0.5% DMSO to prepare 2.5 mM AT-264 solution. Then, this solution was diluted with the medium to prepare 0.625 mM and 0.0625 mM AT-264 solutions.
A 5×10^4 cells/mL solution of human pancreatic cancer cell line AsPC-1 was prepared using a medium containing 50% FBS. This suspension was seeded at 40 μL/well (2×10^3 cells) onto a 96-well plate pre-coated with Collagen type I, and 160 μL of the AT-264 solution was added. This was cultured for six days in a CO2 incubator (on the second day of culture, 100 units/mL penicillin and 0.1 mg/mL streptomycin were added). On the sixth day of culture, the number of viable cells was quantified by MTS assay.

Question: For `N=C(N)c1cccc(CC(NS(=O)(=O)NCc2cccc3ccccc23)C(=O)N2CCCCC2C(=O)O)c1` (centres unmarked) [AT-264], which “uptake of [14C] glycylsarcosine into cells” value (human PepT1) is on record?
Answer: inhibited in a concentration-dependent manner

Question: And the “uptake of [3H] glycylsarcosine into cells” value (human PepT2)?
Answer: inhibited in a concentration-dependent manner

Question: And the “morphological changes under the microscope” value ([1]; BxPC-3 in the presence of AT-264)?
Answer: not observed

Question: What about the inhibition at 500 µM ([1]; Homo sapiens, 144 h, BxPC-3, 0.5 mM AT-264, six days, MTS assay) of the same compound?
Answer: ~20%

Question: And the inhibition at 2000 µM ([1]; Homo sapiens, 144 h, BxPC-3, 2 mM AT-264, six days, MTS assay)?
Answer: ~75%

Question: And the cell growth inhibition ([2]; AsPC-1, 0.5 mM AT-264, six days, MTS assay)?
Answer: slight

Question: And the “morphological changes under the microscope” value ([2]; AsPC-1 in the presence of AT-264)?
Answer: not observed

Question: And the inhibition at 2000 µM ([2]; Homo sapiens, ASPC1, 144 h, AsPC-1, 2 mM AT-264, six days, MTS assay)?
Answer: ~30%
